According to article PMC10298275, “Antiproliferative Activity and Impact on Human Gut Microbiota of New O-Alkyl Derivatives of Naringenin and Their Oximes” (International Journal of Molecular Sciences, 2023):
Converted amounts (≈) assume the structure as drawn. “Also recorded” adds a separate entry of the source. Like-named read-outs stand apart in the source and are kept apart here.

Key:
HT-29 cells [1] = assay: MTT assay, cell viability; assay type: cell-based, human; conditions: HT-29, MTT, 24 h
Experimental: (§1) The HT-29 cells (ATCC, Manassas, VA, USA) were cultured within α-MEM (IIET PAS, Wrocław, Poland) supplemented with 10% fetal bovine serum (Sigma, St. Louis, MO, USA), antimycotic (100 μg/mL penicillin, 100 μg/mL streptomycin and 0.25 μg/mL amphotericin) (Sigma) and 2 mM glutamine (Sigma). The 3T3-L1 cells (ATCC, Manassas, VA, USA) were cultivated using DMEM high-glucose medium (IIET PAS, Wrocław, Poland) supplemented as above. Both cell lines were cultured at 37 °C in an atmosphere of 5% CO2.
First, 1 × 10^4 HT-29 cells or 5 × 10^3 3T3-L1 cells were seeded into a 96-well plate and incubated for one night. Then, cells were treated with different concentrations of the investigated compounds within 24 h. Afterwards, the medium was replaced with a fresh medium containing 0.5 mg/mL of 3-(4,5-dimethylthiazol-2-yl)-2,5-diphenyl-2H-tetrazolium bromide (MTT, Sigma) and incubated for 2 h at 37 °C. After removing the medium, the formazan salts were dissolved in dimethyl sulfoxide (DMSO, Sigma), and the absorbance of the solution was measured at 560 nm using a plate reader.

SRB assay, cytotoxicity [2] = assay type: cell-based, human; conditions: human, HT-29 cells; HT-29, SRB, 24 h exposure, three independent repeats; read-out: Cytotoxicity (IC50 ± SD)
Experimental: as §1
(§2) The sulforhodamine B (SRB) assay was performed according to a previously published protocol. Briefly, 1 × 10^4 HT-29 or 5 × 10^3 3T3-L1 cells were seeded into 96-well plates. After attaching to the plate surface, the cells were incubated with 100, 75, 50, 25, 10 or 1 µg/mL of the investigated compounds for 24 h. After this time, proteins were precipitated with trichloroacetic acid and stained with SRB. The absorbance was measured at 560 nm using a GloMax Discover Microplate Reader (Promega, Madison, WI, USA).

[3] = test system: caspase 3/7 in HT-29 cells; assay: Caspase-Glo 3/7 Assay; assay type: cell-based, human; conditions: HT-29, 50 µg/mL
Experimental: The activity of two effector caspases 3 and 7 was analyzed using the Caspase-Glo 3/7 Assay (Promega) according to the recommendations of the manufacturer. The cells were seeded at a density of 1 × 10^4 per well for the test on a 96-well plate. Then, cells were incubated with A2, B2, A9, B9 and NG at a concentration of 50 µg/mL for 48 h. Half an hour before each measurement of caspase activity, an equal volume of Caspase-Glo 3/7 substrate solution was added to cells. The luminescence signals were detected using a GloMax Discover Microplate Reader at the 6th, 12th, 24th and 48th hours of the experiment. The reactions for each sample were repeated in triplicate and presented as the mean value.

Escherichia coli K12 [4] = assay: MBC assay; assay type: cell-based; conditions: E. coli K12
Experimental: (§3) The minimum bactericidal concentration (MBC) was tested for all naringenin derivatives. First, 10 µL of medium was taken from the plate, on which the MIC was determined for the MIC value, the value below and the two values above. This volume was transferred to TSA or MC agar. After 18–24 h (depending on strain) incubation at 37 °C, colonies were counted. The concentration of test compounds at which no bacterial growth was observed was defined as the MBC value. Each experiment was repeated 3 times.

[5] = test system: Staphylococcus aureus ATCC 25923; assay: MBC assay; assay type: cell-based; conditions: S. aureus ATCC 25923
Experimental: as §3

[6] = test system: Enterococcus faecalis ATCC 29212; assay: MBC assay; assay type: cell-based; conditions: E. faecalis ATCC 29212
Experimental: as §3

Escherichia coli K12 [7] = assay: MIC, microdilution method; assay type: cell-based; conditions: E. coli K12, MHB, 18 h, 37 °C, tested 512 to 1 µg/mL
Experimental: (§4) Non-pathogenic reference strains representing the intestinal microbiome were used for the studies: Escherichia coli K12, Staphylococcus aureus ATCC 25923 and Enterococcus faecalis ATCC 29212. All strains were obtained from the collection of the Department of Microbiology at the Medical University of Wrocław.
(§5) The strains were received from the museum (−80 °C) and grown in tryptic soy broth (TSB, OXOID, Basingstoke, UK) under continuous shaking conditions (MaxQTM6000 incubator shaker, Thermo Scientific, Waltham, MA, USA) at 125 rpm at 37 °C. Then, they were moved to the growth media, namely tryptic soy agar (TSA, OXOID, Basingstoke, UK) and MacConkey agar (MC, Millipore, Darmstadt, Germany) for S. aureus or E. faecalis and E. coli, respectively.
(§6) A fresh 18–24 h culture was used for each study. For this purpose, a culture with a density of 1.5 × 10^8 CFU/mL in Mueller–Hinton broth (MHB, OXOID, Basingstoke, UK) was prepared and used for further microdilution studies.
(§7) The antimicrobial activity of the O-alkyl derivatives of naringenin and their oximes was tested in vitro using the microdilution method, showing the minimum inhibitory concentration (MIC), in accordance with the recommendations of the European Antimicrobial Susceptibility Testing Committee EUCAST [44]. MICs were determined in 96-well microdilution plates. The tests were carried out in MHB medium. The O-alkyl derivatives of naringenin and their oximes were tested in the concentration range of 512 to 1 µg/mL in a geometric process in MHB medium. The final concentration of the test strains in each test well was 5 × 10^5 CFU/mL. MICs were read after 18 h (for E. coli and S. aureus) and 24 h (for E. faecalis) incubation at 37 °C.
(§8) A strain growth control (tested strain in medium), background control for tested compounds (naringenin derivatives in MHB), medium control (only pure MHB) and compound solvent control (DMSO at test compound concentration, strain and MHB) were set for each experiment. Each test was set up with three independent experiments, each as three separate replicates.
(§9) The […], OD600, was measured in a plate reader (ASYS UVM340, BIOCHROM Ltd., Cambridge, UK). The background control of the tested compounds and the clean medium were included in the absorbance results.

[8] = test system: Staphylococcus aureus ATCC 25923; assay: MIC, microdilution method; assay type: cell-based; conditions: S. aureus ATCC 25923, MHB, 18 h, 37 °C, tested 512 to 1 µg/mL
Experimental: as §4, §5, §6, §7, §8, §9

[9] = test system: Enterococcus faecalis ATCC 29212; assay: MIC, microdilution method; assay type: cell-based; conditions: E. faecalis ATCC 29212, MHB, 24 h, 37 °C, tested 512 to 1 µg/mL
Experimental: as §4, §5, §6, §7, §8, §9

HT-29 cells [10] = assay: RealTime-Glo Annexin V Apoptosis and Necrosis Assay; assay type: cell-based, human
Experimental: The process of apoptosis was determined using the RealTime-Glo Annexin V Apoptosis and Necrosis Assay (Promega) according to the manufacturer’s protocol. Briefly, 1 × 10^4 HT-29 cells were seeded into a single well of a 96-well plate. After overnight incubation, the cells were treated with 10, 25, 50 and 100 µg/mL of the investigated compounds and detection reagent for 24 h. As a negative control, untreated cells were used. The luminescence, fluorescence and OD525 signals were detected at each hour of the first 12 h of incubation. The end measurement was performed at the 24th hour of the experiment. All samples were prepared in triplicate, and then their means were calculated.

SRB assay, cytotoxicity [11] = assay type: cell-based, mouse; conditions: mouse, 3T3-L1 cells; 3T3-L1, SRB, 24 h exposure, three independent repeats; read-out: Cytotoxicity (IC50 ± SD)
Experimental: as §1, §2

HT-29 cells [12] = test system: HT-29 cells; design: method as in earlier work; conditions: ref 29 (Kocyigit et al.); cited from earlier work
HT-29 cells [13] = assay: SRB assay, cytotoxicity; assay type: cell-based, human; conditions: HT-29, SRB, 24 h exposure, three independent repeats
Experimental: as §1, §2

3T3-L1 cells = assay: SRB assay, cytotoxicity; assay type: cell-based, mouse; conditions: 3T3-L1, SRB, 24 h exposure, three independent repeats
Experimental: as §1, §2

SMILES: CCCCCCCCCCCOc1cc(O)c2c(c1)O[C@H](c1ccc(O)cc1)CC2=NO [B9, 7-O-Undecylnaringenin oxime]
- reduction in cell viability (HT-29 cells [1]; 10 µg/mL dose): more than 50%
- IC50 at 24 h (SRB assay, cytotoxicity [2]): 11.4 ± 1.17 µg/mL (≈ 25.9 µM)
- time of caspase 3/7 activation [3]: ≤ 12 h
- caspase 3/7 activation ([3]; measured at 6, 12, 24 and 48 h): rapid activation of caspase 3/7
- MBC (Escherichia coli K12 [4]; Escherichia coli, read-out: MBC): > 512 µg/mL
- MBC ([5]; Staphylococcus aureus, ATCC25923, read-out: MBC): > 512 µg/mL
- MBC ([6]; Enterococcus faecalis, ATCC29212, read-out: MBC): > 512 µg/mL
- MIC (Escherichia coli K12 [7]; Escherichia coli, read-out: MIC): > 512 µg/mL
- MIC [8]: >512 (>512) µg/mL
- MIC ([8]; Staphylococcus aureus, ATCC25923, read-out: MIC): > 512 µg/mL
- MIC ([9]; Enterococcus faecalis, ATCC29212, read-out: MIC): 256 µg/mL (≈ 580 µM)
- melting point: 171 to 173 °C
- onset of loss of membrane integrity (fluorescence signal), time shift with respect to luminescence (HT-29 cells [10]; HT-29, 50 µg/mL): more than 5 h
- phosphatidylserine exposure (luminescent signal) on the outer side of the cell membrane (HT-29 cells [10]; HT-29, 50 µg/mL): significantly increased; also recorded: increased the level of phosphatidylserine
- IC50 at 24 h (SRB assay, cytotoxicity [11]): 6.74 ± 0.84 µg/mL (≈ 15.3 µM)

SMILES: O/N=C1\CC(c2ccc(O)cc2)Oc2cc(O)cc(O)c21 (centres unmarked) [NGOX, naringenin oxime, reference compound]
- IC50 (HT-29 cells [12]): 175 µg/mL (≈ 609 µM)
- reduction in cell viability (HT-29 cells [1]; 100 µg/mL): more than 50%
- Cytotoxicity (IC50 ± SD) (HT-29 cells [13]): >100 µg/mL
- MBC (Escherichia coli K12 [4]): > 512 µg/mL
- MBC [5]: > 512 µg/mL
- MBC [6]: > 512 µg/mL
- MIC (Escherichia coli K12 [7]): 512 µg/mL (≈ 1780 µM)
- MIC [8]: > 512 µg/mL
- MIC [9]: 512 µg/mL (≈ 1780 µM)
- annexin V luminescence and necrosis fluorescence signals versus untreated cells (HT-29 cells [10]; HT-29, during 12 h incubation, applied concentrations 10-100 µg/mL): both signals were similar to those for untreated cells
- Cytotoxicity (IC50 ± SD) (3T3-L1 cells): 29.18 ± 2.00 µg/mL
